The text below walks through data of patent publication EP4678638A1, “NEW E3 UBIQUITIN LIGASE LIGAND, PROTEIN DEGRADATION AGENT AND USE THEREOF” (priority 2023, dated 2024).

For assay [1], the system named is H1975. The assay can be described thus: CCK-8 proliferation, NCI-H1975 (H1975). Type of assay: cell-based, Human. The conditions noted are these: Homo sapiens, NCI-H1975; CCK-8; 96 hours; read-out: Inhibitory activity (IC50) on tumor cell proliferation, H1975. The method, boiled down:
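Cells seeded, then after 24 h treated with 10 concentrations (top 10 µM, 5-fold serial dilution) for a line-specific time at 37°C, 5% CO2. Viability read by CCK-8; IC50 fitted from growth-inhibition curves.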

Assay [2] concerns EGFR. The experiment in a line: Western blot degradation of EGFR (H1975 Cell). Type of assay: cell-based, Human. To be noted: Table D2. Put shortly:
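Quantification by ImageJ densitometry of Western blot bands: DC50 is the fitted concentration halving band intensity relative to DMSO. Percent remaining uses internal-control normalization, and degradation rate is its complement.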
(In general: A western blot detects proteins with antibodies after separation by electrophoresis.)

On to `O=C1CCN(c2ccc(CN3CCC(N4CCN(c5ccc(-c6cc(F)c7c(c6)C(=O)N(C(C(=O)Nc6nccs6)c6ncn8c6CCC8)C7)cc5)CC4)CC3)nc2)C(=O)N1` (centres unmarked) [GT-06329, 2-(6,7-dihydro-5H-pyrrolo[1,2-c]imidazol-1-yl)-2-(6-(4-(4-(1-((5-(2,4-dioxotetrahydropyrimidin-1(2H)-yl)pyridin-2-yl)methyl)piperidin-4-yl)piperazin-1-yl)phenyl)-4-fluoro-1-oxoisoindolin-2-yl)-N-(thiazol-2-yl)acetamide], for which, in assay [1], the IC50 was in the range of 1 to 10 nM. Further, the “Degradation of substrate protein EGFR (substrate protein remaining %)” value (from here on “Degradation … (substrate protein remaining %)”) in assay [2] is “A (A is defined as 0% ≤ substrate protein remaining % ≤ 80%)”.
On to `O=C1CCN(c2ccc(CN3CCC(N4CCN(c5ccc(-c6cc(F)c7c(c6)C(=O)N(C(C(=O)Nc6nccs6)c6ncn8c6CCC8)C7)cc5)CC4)CC3)cn2)C(=O)N1` (centres unmarked) [GT-06330, 2-(6,7-dihydro-5H-pyrrolo[1,2-c]imidazol-1-yl)-2-(6-(4-(4-(1-((6-(2,4-dioxotetrahydropyrimidin-1(2H)-yl)pyridin-3-yl)methyl)piperidin-4-yl)piperazin-1-yl)phenyl)-4-fluoro-1-oxoisoindolin-2-yl)-N-(thiazol-2-yl)acetamide], for which the IC50 in assay [1] is 1 to 10 nM. Further, in assay [2], the “Degradation … (substrate protein remaining %)” value was “A (A is defined as 0% ≤ substrate protein remaining % ≤ 80%)”.
For `O=C1CCC(Nc2cccc(CN3CCC(N4CCN(c5ccc(-c6cc(F)c7c(c6)C(=O)N(C(C(=O)Nc6nccs6)c6ncn8c6CCC8)C7)cc5)CC4)CC3)c2)C(=O)N1` (centres unmarked) [GT-06331, 2-(6,7-dihydro-5H-pyrrolo[1,2-c]imidazol-1-yl)-2-(6-(4-(4-(1-(3-((2,6-dioxopiperidin-3-yl)amino)benzyl)piperidin-4-yl)piperazin-1-yl)phenyl)-4-fluoro-1-oxoisoindolin-2-yl)-N-(thiazol-2-yl)acetamide], in that order: 10 to 50 nM and “A (A is defined as 0% ≤ substrate protein remaining % ≤ 80%)”.
In the same order, the values of `CN(Cc1ccnc(N2CCC(=O)NC2=O)c1)C1CCN(c2ccc(-c3cc(F)c4c(c3)C(=O)N(C(C(=O)Nc3nccs3)c3ncn5c3CCC5)C4)cc2)CC1` (centres unmarked) [GT-07383, 2-(6,7-dihydro-5H-pyrrolo[1,2-c]imidazol-1-yl)-2-(6-(4-(4-(((2-(2,4-dioxotetrahydropyrimidin-1(2H)-yl)pyridin-4-yl)methyl)(methyl)amino)piperidin-1-yl)phenyl)-4-fluoro-1-oxoisoindolin-2-yl)-N-(thiazol-2-yl)acetamide] are 1 to 10 nM and “A (A is defined as 0% ≤ substrate protein remaining % ≤ 80%)”.
In the same order, the values of `O=C1CCN(c2cc(CN3C[C@H]4C[C@@H]3CN4c3ccc(-c4cc(F)c5c(c4)C(=O)N(C(C(=O)Nc4nccs4)c4ncn6c4CCC6)C5)cc3)c(F)cn2)C(=O)N1` (stereo partly drawn) [GT-07386, 2-(6,7-dihydro-5H-pyrrolo[1,2-c]imidazol-1-yl)-2-(6-(4-((1R,4R)-5-((2-(2,4-dioxotetrahydropyrimidin-1(2H)-yl)-5-fluoropyridin-4-yl)methyl)-2,5-diazabicyclo[2.2.1]heptan-2-yl)phenyl)-4-fluoro-1-oxoisoindolin-2-yl)-N-(thiazol-2-yl)acetamide] are 1 to 10 nM and “A (A is defined as 0% ≤ substrate protein remaining % ≤ 80%)”.
As to `O=C1CCN(c2cncc(CN3C[C@H]4C[C@@H]3CN4c3ccc(-c4cc(F)c5c(c4)C(=O)N(C(C(=O)Nc4nccs4)c4ncn6c4CCC6)C5)cc3)c2)C(=O)N1` (stereo partly drawn) [GT-07388, 2-(6,7-dihydro-5H-pyrrolo[1,2-c]imidazol-1-yl)-2-(6-(4-((1R,4R)-5-((5-(2,4-dioxotetrahydropyrimidin-1(2H)-yl)pyridin-3-yl)methyl)-2,5-diazabicyclo[2.2.1]heptan-2-yl)phenyl)-4-fluoro-1-oxoisoindolin-2-yl)-N-(thiazol-2-yl)acetamide], in assay [1], the IC50 was 1 to 10 nM. For the same molecule, the “Degradation … (substrate protein remaining %)” value in assay [2] was “A (A is defined as 0% ≤ substrate protein remaining % ≤ 80%)”.
In the same order, the values of `O=C1CCC(c2ccc(CN3C[C@H]4C[C@@H]3CN4c3ccc(-c4cc(F)c5c(c4)C(=O)N(C(C(=O)Nc4nccs4)c4ncn6c4CCC6)C5)cc3)nc2)C(=O)N1` (stereo partly drawn) [GT-07389, 2-(6,7-dihydro-5H-pyrrolo[1,2-c]imidazol-1-yl)-2-(6-(4-((1R,4R)-5-((5-(2,6-dioxopiperidin-3-yl)pyridin-2-yl)methyl)-2,5-diazabicyclo[2.2.1]heptan-2-yl)phenyl)-4-fluoro-1-oxoisoindolin-2-yl)-N-(thiazol-2-yl)acetamide] are 1 to 10 nM and “A (A is defined as 0% ≤ substrate protein remaining % ≤ 80%)”.
For the molecule `O=C1CCC(c2cc(CN3C[C@H]4C[C@@H]3CN4c3ccc(-c4cc(F)c5c(c4)C(=O)N(C(C(=O)Nc4nccs4)c4ncn6c4CCC6)C5)cc3)ccn2)C(=O)N1` (stereo partly drawn) [GT-07390, 2-(6,7-dihydro-5H-pyrrolo[1,2-c]imidazol-1-yl)-2-(6-(4-((1R,4R)-5-((2-(2,6-dioxopiperidin-3-yl)pyridin-4-yl)methyl)-2,5-diazabicyclo[2.2.1]heptan-2-yl)phenyl)-4-fluoro-1-oxoisoindolin-2-yl)-N-(thiazol-2-yl)acetamide], the IC50 in assay [1] is 1 to 10 nM. For the same molecule, the “Degradation … (substrate protein remaining %)” value in assay [2] was “A (A is defined as 0% ≤ substrate protein remaining % ≤ 80%)”.
For `O=C1CCC(c2cncc(CN3C[C@H]4C[C@@H]3CN4c3ccc(-c4cc(F)c5c(c4)C(=O)N(C(C(=O)Nc4nccs4)c4ncn6c4CCC6)C5)cc3)c2)C(=O)N1` (stereo partly drawn) [GT-07391, 2-(6,7-dihydro-5H-pyrrolo[1,2-c]imidazol-1-yl)-2-(6-(4-((1R,4R)-5-((5-(2,6-dioxopiperidin-3-yl)pyridin-3-yl)methyl)-2,5-diazabicyclo[2.2.1]heptan-2-yl)phenyl)-4-fluoro-1-oxoisoindolin-2-yl)-N-(thiazol-2-yl)acetamide], in that order: 1 to 10 nM and “A (A is defined as 0% ≤ substrate protein remaining % ≤ 80%)”.
Turning to `CN(Cc1cncc(C2CCC(=O)NC2=O)c1)C1CCN(c2ccc(-c3cc(F)c4c(c3)C(=O)N(C(C(=O)Nc3nccs3)c3ncn5c3CCC5)C4)cc2)CC1` (centres unmarked) [GT-07393, 2-(6,7-dihydro-5H-pyrrolo[1,2-c]imidazol-1-yl)-2-(6-(4-(4-(((5-(2,6-dioxopiperidin-3-yl)pyridin-3-yl)methyl)(methyl)amino)piperidin-1-yl)phenyl)-4-fluoro-1-oxoisoindolin-2-yl)-N-(thiazol-2-yl)acetamide], in assay [1], the IC50 was 1 to 10 nM. For the same molecule, the “Degradation … (substrate protein remaining %)” value in assay [2] is “A (A is defined as 0% ≤ substrate protein remaining % ≤ 80%)”.
